Laboratory results published in US20100184815A1 (priority 2008, published 2010).
Read-outs that look alike come from different tables or passages of the source.

Experiments:
[1] = Metabolism studies using human liver microsomal preparations; assay type: in vitro ADME; settings: for HLMs Predominant Enzyme: comparison of half life with and without NADPH: Esterase, CYP or Mixed; for half-life: pH 7.4, pooled human liver microsomes, with NADPH (CYP system active), 37° C., read-out: HLMs t1/2
Method: Compounds were incubated in pooled human liver microsomes (HLMs) in the presence or absence of an NADPH-generating system. NADPH is required for the activity of cytochrome P450 (CYP) and other oxidative enzymes present in HLMs, but not for esterase activity. An additional incubation was carried out in the absence of HLM to assess compound stability. The disappearance of parent and the appearance of the corresponding acid metabolite were monitored over the time course of the incubations using LC-MS/MS.
A stock solution (20 mM) of each proprietary compound in DMSO was prepared and store at −20° C. until needed. A working stock solution (0.2 mM) was prepared for each proprietary compound by adding an aliquot of the stock solution (10 μL) to acetonitrile (990 μL).
An aliquot of the HLM solution was removed from the −80° C. freezer and placed on ice. Tris Buffer (50 mM, pH 7.4) containing MgCl2 (hexahydrate, 5 mM) was pre-incubated in a 37° C. water bath. A set of Eppendorf microfuge tubes (1.5 mL) was appropriately labeled. To each tube was added Tris buffer with or without the NADPH generating system. An aliquot of pooled HLMs was added to all the incubations except those that were the buffer control.
Tubes were preincubated for 5 min in a shaking incubator bath (37° C., 900 rpm) and the reaction was initiated by adding an aliquot of the proprietary working solution (5 μL). The additions were timed carefully in order to coordinate the sample collections below. A small aliquot (50 μL) was removed at […] and delivered to the respective tubes containing dextrorphan (100 μL of 0.5 μg/mL solution) in dissolved in methanol or acetonitrile. The samples were centrifuged at 14000 g for 15 minutes at 4° C. The supernatant was transferred to clean labeled HPLC injection vials and stored at −80° C. until analyzed. An aliquot of the supernatant […] was added to water (75 μL), mixed and injected onto the LC-MS/MS system for analysis.
“HLM t1/2” represents the observed half life of the compound under conditions that included NADPH, i.e., the CYP system was active. Comparison to the half life of the test article under (−)NADPH conditions, the enzyme predominant ly responsible for the metabolism of the test article. […] Where roughly equal metabolism is seen by each enzyme system, “mixed” is noted in the “Predominant enzyme” column.

[2] = test system: pig liver esterase; assay: Metabolism studies using pig liver esterase; assay type: in vitro ADME; settings: 37° C.
Method: The esterase-mediated metabolism of these compounds was studied using commercially available pig liver esterase in the presence and absence of human plasma proteins. The disappearance of parent was monitored over the time course of the incubations using a LC-UV detection system.
A stock solution and working stock solution was prepared for each proprietary compound as described for the human liver microsomal incubations. Working solutions of pig liver esterase in potassium phosphate buffer ([…], pH 7.4) and pig liver esterase in human plasma protein were prepared by dissolving pig liver esterase (2.51 mg) in the phosphate buffer or plasma protein solutions, respectively.
A set of three Eppendorf microfuge tubes (1.5 mL) was appropriately labeled. To each tube was added 1.5 mL of phosphate buffer, pig liver esterase in buffer, or pig liver esterase in human plasma protein solution. These solutions were pre-incubated (37° C., 900 rpm) and the reactions were initiated by adding an aliquot (37.5 μL) of the working solution of proprietary compound to each tube. An aliquot (100 μL) from each tube was removed at time 0, 5, 30, 60, and 120 min and added to a tube containing acetonitrile (200 μL) to stop the reaction.
The samples were centrifuged at 14000 g for 15 minutes at 4° C. The supernatant was transferred to clean labeled HPLC injection vials and stored at −80° C. until analyzed. An aliquot of the supernatant (25 μL) was injected onto the LC-UV system for analysis.
Half lives of a sample of test articles is noted in the following table. Half life was determined in the presence or absence of plasma.

[3] = target: T1, Gal-4 hPPARα (Homo sapiens, UniProt Q07869); assay: Gal4-hPPARα transient transfection reporter assay in Cos cells; assay type: cell-based; settings: luciferase reporter, 24 hours with compound, scale 1-5, read-out: Gal-4 hPPAR α EC50 (scaled number)
T1 construct: Plasmids pGal4-hPPARα, pGal4-hPPARγ, pGal4-hPPARδ and pG5-TK-pGL3 were constructed as previously described by Staels, Bart, et al., Nature 1998 Jun; 25
T1 sequence (Q07869 200-468 limits assumed): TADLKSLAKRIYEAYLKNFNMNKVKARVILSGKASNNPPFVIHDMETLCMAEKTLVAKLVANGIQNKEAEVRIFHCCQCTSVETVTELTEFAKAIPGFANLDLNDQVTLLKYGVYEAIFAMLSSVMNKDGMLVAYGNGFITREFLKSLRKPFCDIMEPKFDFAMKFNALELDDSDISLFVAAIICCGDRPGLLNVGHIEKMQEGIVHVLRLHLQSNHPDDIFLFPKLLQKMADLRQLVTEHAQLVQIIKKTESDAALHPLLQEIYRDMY
Method: (§1) Construction of recombinant plasmids. Plasmids pGal4-hPPARα, pGal4-hPPARγ, pGal4-hPPARδ and pG5-TK-pGL3 were constructed as previously described by Staels, Bart, et al., Nature 1998 Jun. 25; 393 (6687): 790-793, by Staels (Institut Pasteur de Lille, FR).
(§2) Transient transfection assays. Cos cells were seeded in 60-mm dishes at a density of 5.5×10^5 cells/dish in Dulbecco's modified Eagle's medium (DMEM) supplemented with 10% fetal calf serum (FCS) and incubated at 37° C. for 24 hours before transfection. Cells were transfected in Opti-MEM (Gibco; Invitrogen, Carlsbad, Calif.) without FCS for 3 hours at 37° C., using polyethylenimine, with reporter and expression plasmids. The plasmid pBluescript (Stratagene, La Jolla, Calif.) was used as carrier DNA to set the final amount of DNA to 5.5 μg/dish. The pCMV-b-galactosidase expression plasmid was cotransfected as a control for transfection efficiency. Transfection was stopped by the addition of DMEM supplemented with 10% FCS, and cells were then incubated at 37° C. After 16 hours, cells were trypsinized and seeded in 96-well plates at the density of 2×10^4 cells/well and incubated for 6 hours in 10% FCS-containing DMEM. Cells were then incubated for 24 hours in DMEM containing 0.2% FCS and increasing concentrations of the compound tested or vehicle (DMSO). At the end of the experiment, cells were washed once with ice-cold PBS, lysed and the luciferase and b-galactosidase assays were performed in a luminometer and spectrophotomer. Transfection efficiencies were normalized with the b-galactosidase activity assay. Half-maximal effective concentration (EC50) was estimated using Prism software (GraphPad). All transfection experiments were performed at least three times.
(§3) In the following tables, proprietary compound EC50 values for hPPAR α, β, δ and γ are shown. The EC50 value is the concentration of a drug that induces a response halfway between the baseline and maximum, and is commonly used as a measure of drug potency. EC50 values are reported on a scale of 1 through 5, wherein the value scale is defined for each receptor as follows: […]

[4] = target: T2, Gal-4 hPPARγ (Homo sapiens, UniProt P37231); assay: Gal4-hPPARγ transient transfection reporter assay in Cos cells; assay type: cell-based; settings: luciferase reporter, 24 hours with compound, scale 1-5, read-out: Gal-4 hPPAR γ EC50 (scaled number)
T2 construct: Plasmids pGal4-hPPARα, pGal4-hPPARγ, pGal4-hPPARδ and pG5-TK-pGL3 were constructed as previously described by Staels, Bart, et al., Nature 1998 Jun; 25
T2 sequence (P37231 238-505 limits assumed): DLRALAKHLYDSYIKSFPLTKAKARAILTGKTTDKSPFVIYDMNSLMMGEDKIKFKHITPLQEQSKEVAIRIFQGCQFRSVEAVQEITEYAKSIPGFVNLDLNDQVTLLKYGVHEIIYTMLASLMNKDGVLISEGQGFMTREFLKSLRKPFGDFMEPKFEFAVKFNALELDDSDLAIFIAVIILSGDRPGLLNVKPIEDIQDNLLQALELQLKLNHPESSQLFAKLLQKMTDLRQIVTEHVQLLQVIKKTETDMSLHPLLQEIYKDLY
Method: as §1, §2, §3

[5] = target: T3, Gal-4 hPPARβ/δ (Homo sapiens, UniProt Q03181); assay: Gal4-hPPARδ transient transfection reporter assay in Cos cells; assay type: cell-based; settings: luciferase reporter, 24 hours with compound, scale 1-5, read-out: Gal-4 hPPAR β/δ EC50 (scaled number)
T3 construct: Plasmids pGal4-hPPARα, pGal4-hPPARγ, pGal4-hPPARδ and pG5-TK-pGL3 were constructed as previously described by Staels, Bart, et al., Nature 1998 Jun; 25
T3 sequence (Q03181 171-441 limits assumed): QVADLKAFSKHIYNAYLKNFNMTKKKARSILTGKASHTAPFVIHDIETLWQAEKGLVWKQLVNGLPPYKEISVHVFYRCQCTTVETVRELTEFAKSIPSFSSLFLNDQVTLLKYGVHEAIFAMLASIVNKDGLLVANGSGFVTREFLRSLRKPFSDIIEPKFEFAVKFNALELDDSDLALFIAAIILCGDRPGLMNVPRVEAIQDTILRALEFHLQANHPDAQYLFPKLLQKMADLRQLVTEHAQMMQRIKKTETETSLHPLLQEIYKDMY
Method: as §1, §2, §3

[6] = pig liver esterase in phosphate buffer pH 7.4, no plasma, read-out: Pig Liver Esterase (t1/2 min.) (−) Plasma

Row | HLMs Predominant Enzyme [1] | half-life [1] [min] | Pig Liver Esterase (t1/2 min.) (+) Plasma ([2]; pig liver esterase in human plasma protein solution) | half-life at 4.9 µM [2, 6] [min] | EC50 [3] [nM] | EC50 [4] [nM] | EC50 [5] [nM] | half-life at 4.9 µM ([2]; pig liver esterase in human plasma protein solution, read-out: Pig Liver Esterase (t1/2 min.) (+) Plasma) [min] | Structure (SMILES)
1 | Mixed | 73 | Stable | 77 |  |  |  |  | C[C@@H](Cc1cn(Cc2ccc(C(F)(F)F)cc2)nn1)OC(=O)c1ccc(SC(C)(C)C(=O)O)cc1 [Compound 147, 4-(1-Carboxy-1-methyl-ethylsulfanyl)-benzoic acid (S)-1-methyl-2-[1-(4-trifluoromethyl-benzyl)-1H-1,2,3-triazol-4-yl]-ethyl ester]
2 | Mixed | 29 |  |  | 1 to 50 | > 1000 | > 1000 |  | C[C@@H](Cc1cn(Cc2ccc(C(C)(C)C)cc2)nn1)OC(=O)c1ccc(SC(C)(C)C(=O)O)cc1 [Compound 133, 4-(1-Carboxy-1-methyl-ethylsulfanyl)-benzoic acid (S)-2-[1-(4-tert-butyl-benzyl)-1H-1,2,3-triazol-4-yl]-1-methyl-ethyl ester]
3 | Esterase | 10 |  | < 5 |  |  |  | 17 | CCCn1c(COC(=O)c2ccc(OC(C)(C)C(=O)O)cc2)nn(Cc2ccc(C(=O)O[C@H](C)C(F)(F)C(F)(F)F)cc2)c1=O [Compound 174, (R)-2-methyl-2-(4-(((5-oxo-1-(4-((3,3,4,4,4-pentafluorobutan-2-yloxy)carbonyl)benzyl)-4-propyl-4,5-dihydro-1H-1,2,4-triazol-3-yl)methoxy)carbonyl)phenoxy)propanoic acid]
4 |  |  |  |  | 51 to 200 | > 1000 | > 1000 |  | C[C@@H](OC(=O)c1ccc(SC(C)(C)C(=O)O)cc1)c1cn(Cc2ccc(OC(F)(F)F)cc2)nn1 [Compound 137, 4-(1-Carboxy-1-methyl-ethylsulfanyl)-benzoic acid (R)-1-[1-(4-trifluoromethoxy-benzyl)-1H-1,2,3-triazol-4-yl]-ethyl ester]
5 |  |  |  |  | 1 to 50 | > 1000 | > 1000 |  | CC(C)(Sc1ccc(C(=O)OCc2cnn(Cc3ccc4ccccc4c3)c2)cc1)C(=O)O [Compound 26, 2-methyl-2-(4-(((1-(naphthalen-2-ylmethyl)-1H-pyrazol-4-yl)methoxy)carbonyl)phenylthio)propanoic acid]
6 |  |  |  |  | < 1 | 51 to 200 | > 1000 |  | CCCCCCCn1c(C(C)OC(=O)c2ccc(SC(C)(C)C(=O)O)cc2)nn(Cc2ccc(C)cc2)c1=O (stereo not shown) [Compound 264, 4-(1-Carboxy-1-methyl-ethylsulfanyl)-benzoic acid 1-[4-heptyl-1-(4-methyl-benzyl)-5-oxo-4,5-dihydro-1H-1,2,4-triazol-3-yl]-ethyl ester]
7 |  |  |  |  | 51 to 200 | > 1000 | > 1000 |  | CC(C)(Sc1ccc(C(=O)OCc2cnn(Cc3ccc(-c4ccccc4)cc3)c2)cc1)C(=O)O [Compound 22, 2-(4-(((1-(biphenyl-4-ylmethyl)-1H-pyrazol-4-yl)methoxy)carbonyl)phenylthio)-2-methylpropanoic acid]
8 |  |  |  |  | 1 to 50 | 201 to 999 | 201 to 999 |  | CC(C)(Sc1ccc(C(=O)OCc2cnn(-c3ccc(C(F)(F)F)cc3)c2)cc1)C(=O)O [Compound 18, 2-methyl-2-(4-(((1-(4-(trifluoromethyl)phenyl)-1H-pyrazol-4-yl)methoxy)carbonyl)phenylthio)propanoic acid]
9 |  |  |  |  | 1 to 50 | > 1000 | > 1000 |  | CCn1c(COC(=O)c2ccc(SC(C)(C)C(=O)O)cc2)nn(Cc2ccc(C(F)(F)F)cc2)c1=O [Compound 197, 2-(4-(((4-ethyl-5-oxo-1-(4-(trifluoromethyl)benzyl)-4,5-dihydro-1H-1,2,4-triazol-3-yl)methoxy)carbonyl)phenylthio)-2-methylpropanoic acid]
10 |  |  |  |  | 51 to 200 | > 1000 | > 1000 |  | CCCn1c(COC(=O)c2ccc(SC(C)(C)C(=O)O)cc2)nn(Cc2cc(F)cc(F)c2)c1=O [Compound 218, 2-(4-(((1-(3,5-difluorobenzyl)-5-oxo-4-propyl-4,5-dihydro-1H-1,2,4-triazol-3-yl)methoxy)carbonyl)phenylthio)-2-methylpropanoic acid]
